Experimental findings from ChEMBL document CHEMBL1697781, “Assessment of the health effects of chemicals in humans: II. Construction of an adverse effects database for QSAR modeling” (Curr Drug Discov Technol, 2004) are described below.

Common to all, as to details: human
The subject of data set [1] is Hepatotoxicity. Put plainly: FDA HLAED, serum glutamic oxaloacetic transaminase (SGOT) increase.
Data set [2] has as its system Hepatotoxicity. Put plainly: FDA HLAED, gamma-glutamyl transferase (GGT) increase.
The subject of data set [3] is Hepatotoxicity. Put plainly: FDA HLAED, serum glutamic pyruvic transaminase (SGPT) increase.
The subject of data set [4] is Hepatotoxicity. Put plainly: FDA HLAED, liver enzyme composite activity.
Data set [5] concerns Hepatotoxicity. In words: FDA HLAED, lactate dehydrogenase (LDH) increase.
For data set [6], the system named is Hepatotoxicity. Put plainly: FDA HLAED, alkaline phosphatase increase.
Throughout, for GGT Increase - Index Value: reference of the scale not given here.
Throughout, for LDH Increase - Index Value: reference of the scale not given here.

As for `CCN1CCN(C(=O)N[C@@H](C(=O)N[C@@H]2C(=O)N3[C@@H]2SC(C)(C)[C@@H]3C(=O)O)c2ccccc2)C(=O)C1=O` [PIPERACILLIN], in the data set with Hepatotoxicity [1], the “SGOT Increase - Activity Score” value is reported as “Inactive”, the “SGOT Increase - Index Value” came to 0.3 and the “SGOT Increase - Number of Reports” value is on record as less than 4. Further, in the data set on Hepatotoxicity [2], the “GGT Increase - Activity Score” value is “Inactive”, the “GGT Increase - Index Value” was 0 and the “GGT Increase - Number of Reports” value is recorded as less than 4. Besides, in the data set on Hepatotoxicity [3], the “SGPT Increase - Activity Score” value is reported as “Inactive”, the “SGPT Increase - Index Value” is 0 and the “SGPT Increase - Number of Reports” value was less than 4. Also, in the data set with Hepatotoxicity [4], the “Composite Activity - Active” value came out at 0, the “Composite Activity - Marginal” value is recorded as 0 and the “Composite Activity - Score” value was “Inactive”. In the data set with Hepatotoxicity [5], the “LDH Increase - Activity Score” value is “Inactive”, the “LDH Increase - Index Value” is reported as 0 and the “LDH Increase - Number of Reports” value is listed as less than 4. Moreover, in the data set on Hepatotoxicity [6], the “Alkaline Phosphatase Increase - Activity Score” value is listed as “Inactive”, the “Alkaline Phosphatase Increase - Index Value” is listed as 0.3 and the “Alkaline Phosphatase Increase - Number of Reports” value is less than 4.

On to `CC(C)(C)NCC(O)c1ccc(O)c(CO)n1` (configuration not stated) [PIRBUTEROL], for which, in the data set on Hepatotoxicity [1], the “SGOT Increase - Activity Score” value is on record as “Inactive”, the “SGOT Increase - Index Value” was found to be 0.3 and the “SGOT Increase - Number of Reports” value is listed as less than 4. For the same compound, in the data set on Hepatotoxicity [2], the “GGT Increase - Activity Score” value was “Inactive”, the “GGT Increase - Index Value” was determined as 0 and the “GGT Increase - Number of Reports” value is reported as less than 4. Further, in the data set with Hepatotoxicity [3], the “SGPT Increase - Activity Score” value is reported as “Inactive”, the “SGPT Increase - Index Value” is 0 and the “SGPT Increase - Number of Reports” value is less than 4. For the same compound, in the data set with Hepatotoxicity [4], the “Composite Activity - Active” value was found to be 0, the “Composite Activity - Marginal” value stood at 0 and the “Composite Activity - Score” value is “Inactive”. For the same compound, in the data set with Hepatotoxicity [5], the “LDH Increase - Activity Score” value is listed as “Inactive”, the “LDH Increase - Index Value” is 0 and the “LDH Increase - Number of Reports” value was less than 4. In addition, in the data set on Hepatotoxicity [6], the “Alkaline Phosphatase Increase - Activity Score” value is “Inactive”, the “Alkaline Phosphatase Increase - Index Value” is 0 and the “Alkaline Phosphatase Increase - Number of Reports” value is given as less than 4.

On to `CN1C(C(=O)Nc2ccccn2)=C(O)c2ccccc2S1(=O)=O` [PIROXICAM], for which, in the data set with Hepatotoxicity [1], the “SGOT Increase - Activity Score” value is “Inactive”, the “SGOT Increase - Index Value” is 1.7 and the “SGOT Increase - Number of Reports” value is listed as “>= 4”. In the data set with Hepatotoxicity [2], the “GGT Increase - Activity Score” value is recorded as “Inactive”, the “GGT Increase - Index Value” was 0 and the “GGT Increase - Number of Reports” value was less than 4. Besides, in the data set with Hepatotoxicity [3], the “SGPT Increase - Activity Score” value is reported as “Inactive”, the “SGPT Increase - Index Value” was 0.9 and the “SGPT Increase - Number of Reports” value is on record as “>= 4”. In the data set with Hepatotoxicity [4], the “Composite Activity - Active” value came out at 0, the “Composite Activity - Marginal” value was 0 and the “Composite Activity - Score” value was “Inactive”. For the same compound, in the data set on Hepatotoxicity [5], the “LDH Increase - Activity Score” value was “Inactive”, the “LDH Increase - Index Value” was 0.5 and the “LDH Increase - Number of Reports” value is recorded as less than 4. Further, in the data set on Hepatotoxicity [6], the “Alkaline Phosphatase Increase - Activity Score” value is “Inactive”, the “Alkaline Phosphatase Increase - Index Value” turned out to be 2.6 and the “Alkaline Phosphatase Increase - Number of Reports” value is listed as “>= 4”.

Consider `COc1cc([C@@H]2c3cc4c(cc3[C@H](O)[C@H]3COC(=O)[C@H]23)OCO4)cc(OC)c1OC` [PODOFILOX], for which, in the data set on Hepatotoxicity [1], the “SGOT Increase - Activity Score” value is on record as “Inactive”, the “SGOT Increase - Index Value” is recorded as 0 and the “SGOT Increase - Number of Reports” value is given as less than 4. In the data set with Hepatotoxicity [2], the “GGT Increase - Activity Score” value is “Inactive”, the “GGT Increase - Index Value” turned out to be 0 and the “GGT Increase - Number of Reports” value is listed as less than 4. Besides, in the data set on Hepatotoxicity [3], the “SGPT Increase - Activity Score” value is given as “Inactive”, the “SGPT Increase - Index Value” stood at 0 and the “SGPT Increase - Number of Reports” value was less than 4. Moreover, in the data set with Hepatotoxicity [4], the “Composite Activity - Active” value was 0, the “Composite Activity - Marginal” value was 0 and the “Composite Activity - Score” value was “Inactive”. For the same compound, in the data set on Hepatotoxicity [5], the “LDH Increase - Activity Score” value is recorded as “Inactive”, the “LDH Increase - Index Value” is reported as 0 and the “LDH Increase - Number of Reports” value was less than 4. In addition, in the data set on Hepatotoxicity [6], the “Alkaline Phosphatase Increase - Activity Score” value is on record as “Inactive”, the “Alkaline Phosphatase Increase - Index Value” was found to be 0 and the “Alkaline Phosphatase Increase - Number of Reports” value was less than 4.

For `CC[C@H](C)C(=O)O[C@H]1C[C@H](O)C=C2C=C[C@H](C)[C@H](CC[C@@H](O)C[C@@H](O)CC(=O)O)[C@H]21` [PRAVASTATIN], in the data set on Hepatotoxicity [1], the “SGOT Increase - Activity Score” value is reported as “Active”, the “SGOT Increase - Index Value” stood at 6.2 and the “SGOT Increase - Number of Reports” value is recorded as “>= 4”. In addition, in the data set with Hepatotoxicity [2], the “GGT Increase - Activity Score” value is given as “Active”, the “GGT Increase - Index Value” is on record as 5.3 and the “GGT Increase - Number of Reports” value is listed as “>= 4”. Besides, in the data set with Hepatotoxicity [3], the “SGPT Increase - Activity Score” value is reported as “Active”, the “SGPT Increase - Index Value” came to 6.3 and the “SGPT Increase - Number of Reports” value is on record as “>= 4”. Moreover, in the data set on Hepatotoxicity [4], the “Composite Activity - Active” value amounted to 4, the “Composite Activity - Marginal” value came to 1 and the “Composite Activity - Score” value is “Active”. Also, in the data set on Hepatotoxicity [5], the “LDH Increase - Activity Score” value is given as “Marginally Active”, the “LDH Increase - Index Value” is recorded as 3.1 and the “LDH Increase - Number of Reports” value was “>= 4”. Also, in the data set with Hepatotoxicity [6], the “Alkaline Phosphatase Increase - Activity Score” value is on record as “Active”, the “Alkaline Phosphatase Increase - Index Value” came to 4.5 and the “Alkaline Phosphatase Increase - Number of Reports” value was “>= 4”.

As to `O=C1CN=C(c2ccccc2)c2cc(Cl)ccc2N1CC1CC1` [PRAZEPAM], in the data set with Hepatotoxicity [1], the “SGOT Increase - Activity Score” value was “Inactive”, the “SGOT Increase - Index Value” is on record as 0.3 and the “SGOT Increase - Number of Reports” value is listed as less than 4. Moreover, in the data set on Hepatotoxicity [2], the “GGT Increase - Activity Score” value is recorded as “Inactive”, the “GGT Increase - Index Value” came to 0 and the “GGT Increase - Number of Reports” value is listed as less than 4. Further, in the data set with Hepatotoxicity [3], the “SGPT Increase - Activity Score” value was “Inactive”, the “SGPT Increase - Index Value” is reported as 0.3 and the “SGPT Increase - Number of Reports” value was less than 4. For the same compound, in the data set with Hepatotoxicity [4], the “Composite Activity - Active” value was 0, the “Composite Activity - Marginal” value was 0 and the “Composite Activity - Score” value is listed as “Inactive”. Moreover, in the data set on Hepatotoxicity [5], the “LDH Increase - Activity Score” value is listed as “Inactive”, the “LDH Increase - Index Value” is listed as 0 and the “LDH Increase - Number of Reports” value is less than 4. In the data set on Hepatotoxicity [6], the “Alkaline Phosphatase Increase - Activity Score” value is reported as “Inactive”, the “Alkaline Phosphatase Increase - Index Value” came to 0.3 and the “Alkaline Phosphatase Increase - Number of Reports” value is less than 4.

With `CCN(CC)CCNC(=O)c1ccc(N)cc1` [PROCAINAMIDE], in the data set on Hepatotoxicity [1], the “SGOT Increase - Activity Score” value is given as “Inactive”, the “SGOT Increase - Index Value” is 0 and the “SGOT Increase - Number of Reports” value was less than 4. In the data set with Hepatotoxicity [2], the “GGT Increase - Activity Score” value is “Inactive”, the “GGT Increase - Index Value” is 0 and the “GGT Increase - Number of Reports” value is listed as less than 4. In the data set with Hepatotoxicity [3], the “SGPT Increase - Activity Score” value is on record as “Inactive”, the “SGPT Increase - Index Value” was found to be 0 and the “SGPT Increase - Number of Reports” value is less than 4. Moreover, in the data set with Hepatotoxicity [4], the “Composite Activity - Active” value is reported as 0, the “Composite Activity - Marginal” value came to 0 and the “Composite Activity - Score” value is recorded as “Inactive”. In addition, in the data set on Hepatotoxicity [5], the “LDH Increase - Activity Score” value is given as “Inactive”, the “LDH Increase - Index Value” came out at 0 and the “LDH Increase - Number of Reports” value is reported as less than 4. Also, in the data set on Hepatotoxicity [6], the “Alkaline Phosphatase Increase - Activity Score” value was “Inactive”, the “Alkaline Phosphatase Increase - Index Value” was found to be 0 and the “Alkaline Phosphatase Increase - Number of Reports” value is reported as less than 4.

In the case of `CCCNCC(O)COc1ccccc1C(=O)CCc1ccccc1` (configuration not stated) [PROPAFENONE], in the data set on Hepatotoxicity [1], the “SGOT Increase - Activity Score” value is “Active”, the “SGOT Increase - Index Value” came out at 5.7 and the “SGOT Increase - Number of Reports” value is recorded as “>= 4”. In addition, in the data set on Hepatotoxicity [2], the “GGT Increase - Activity Score” value is recorded as “Inactive”, the “GGT Increase - Index Value” was determined as 2.9 and the “GGT Increase - Number of Reports” value was less than 4. Further, in the data set on Hepatotoxicity [3], the “SGPT Increase - Activity Score” value is “Active”, the “SGPT Increase - Index Value” was found to be 4.7 and the “SGPT Increase - Number of Reports” value is given as “>= 4”. For the same compound, in the data set with Hepatotoxicity [4] (Liver), the “Composite Activity - Active” value came to 3, the “Composite Activity - Marginal” value came to 0 and the “Composite Activity - Score” value was “Active”. Moreover, in the data set on Hepatotoxicity [5], the “LDH Increase - Activity Score” value is reported as “Inactive”, the “LDH Increase - Index Value” is recorded as 1.9 and the “LDH Increase - Number of Reports” value is less than 4. Besides, in the data set on Hepatotoxicity [6], the “Alkaline Phosphatase Increase - Activity Score” value is given as “Active”, the “Alkaline Phosphatase Increase - Index Value” is 7.6 and the “Alkaline Phosphatase Increase - Number of Reports” value was “>= 4”.

Take `CC(C)c1cccc(C(C)C)c1O` [PROPOFOL]: in the data set with Hepatotoxicity [1], the “SGOT Increase - Activity Score” value was “Inactive”, the “SGOT Increase - Index Value” is given as 0.7 and the “SGOT Increase - Number of Reports” value is recorded as “>= 4”. Moreover, in the data set on Hepatotoxicity [2], the “GGT Increase - Activity Score” value is listed as “Inactive”, the “GGT Increase - Index Value” was 0.1 and the “GGT Increase - Number of Reports” value is listed as less than 4. Besides, in the data set on Hepatotoxicity [3], the “SGPT Increase - Activity Score” value is reported as “Inactive”, the “SGPT Increase - Index Value” is recorded as 0.5 and the “SGPT Increase - Number of Reports” value is listed as “>= 4”. For the same compound, in the data set on Hepatotoxicity [4] (Liver), the “Composite Activity - Active” value stood at 0, the “Composite Activity - Marginal” value was found to be 0 and the “Composite Activity - Score” value was “Inactive”. Moreover, in the data set with Hepatotoxicity [5], the “LDH Increase - Activity Score” value is recorded as “Inactive”, the “LDH Increase - Index Value” amounted to 0.5 and the “LDH Increase - Number of Reports” value is recorded as “>= 4”. Moreover, in the data set with Hepatotoxicity [6], the “Alkaline Phosphatase Increase - Activity Score” value is reported as “Inactive”, the “Alkaline Phosphatase Increase - Index Value” came out at 0.4 and the “Alkaline Phosphatase Increase - Number of Reports” value is “>= 4”.
